Laboratory results: US11241427B2, “Small molecule modulators of NR2F6 activity” (Regen Biopharma, Inc., priority 2015, dated 2022)
Read-outs that look alike come from different tables or passages of the source.

Target: T1, NR2F6 (ligand binding domain, amino acids 163-404) (Homo sapiens, UniProt P10588)
T1 construct: HIS (N, cleaved yes); FLAG (N, cleaved yes); TEV site (N, cleaved yes); made in house; host or cells: E. coli BL21 (DE3)
T1 sequence (P10588 163-404): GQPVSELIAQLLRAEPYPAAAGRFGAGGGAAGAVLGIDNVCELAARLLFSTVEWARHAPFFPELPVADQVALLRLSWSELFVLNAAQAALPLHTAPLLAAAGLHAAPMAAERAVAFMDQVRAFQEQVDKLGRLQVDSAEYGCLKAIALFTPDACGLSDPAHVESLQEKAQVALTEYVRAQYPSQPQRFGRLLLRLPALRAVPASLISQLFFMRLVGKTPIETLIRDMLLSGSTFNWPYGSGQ
Assay: Thermoshift analysis (TSA) of compound binding to NR2F6
Conditions: for Tm: NR2F6 alone Tm 48 °C
Experimental: The binding interaction between target protein NR2F6 and 139 compounds selected from an in silico screen was assessed using thermoshift analysis (TSA). Thermoshift is a physical technique used to determine the melting temperature of a protein. The interaction of the ligand to the folded state of the protein shifts the melting temperature. In the experimental system used, the NR2F6 protein is mixed with the ligand and the fluorescent dye SYPRO Orange®. The fluorescence is monitored over temperature gradient between 20 and 95° C. with 0.5° C. increment. The dye binds to the hydrophobic regions of molten globules and denatured proteins resulting in an increase of fluorescence. A plot of the fluorescence is obtained and used to determine the melting temperature in absence and presence of ligand.
The ligand binding domain of NR2F6 (amino acids 163-404) was cloned for soluble expression in E. coli with an N-terminal HIS-FLAG-TEV-tag. Expression was performed in BL21 (DE3) cells. In brief, a 12L E. coli culture was induced with IPTG in logarithmic phase and further incubated over night at 18° C. Cells were harvested via centrifugation, washed with buffer and stored at […] until purification.
The purification procedure performed consists of HIS affinity chromatography, tag cleavage, negative affinity chromatography, size exclusion chromatography and ion exchange chromatography.
Thermoshift analysis was performed on 139 Compounds that were stored as powder in DMSO stocks. A reaction volume of 25 μl was used, with reaction temperatures being increased in 0.5 increments from 20-95° C. in 96 well, PCR plates (Hard-Shell®, HSP-9655). The control was NR2F6 protein alone in 1% DMSO. For performing the reaction, a reaction buffer comprising of the following was utilized: 20 mM HEPES pH 6.85, 150 mM NaCl, 10% Glycerin and 0.5 mM TCEP.
The following pipetting sequence was used: 1) Add appropriate volume of target enzyme in reaction buffer; 2) Add appropriate volume of dye SYPRO Orange® in reaction buffer; 3) Add inhibitor in 100% DMSO (1% final DMSO conc); 4) Measure fluorescence
Fluorescence was quantified using a CFX Connect™ Real-Time PCR Detection System (BioRad)
An increase in melting temperature is indicative for compound binding.

[1] = Table 1.1, 100 μM compound, shift versus NR2F6 alone (Tm 48 °C), read-out: delta Tm
[2] = Table 1.1, 100 μM compound, 0.5 mg/ml NR2F6, 1% DMSO
[3] = Table 1.1, 100 μM compound, shift versus NR2F6 alone (Tm 48 °C)

Row | Compound | Tm (Table 1.2, 100 μM compound) | ΔTm at 100 µM [1] | Tm [2] | delta Tm [3] | ΔTm at 100 µM
1 | O=Cc1c2c(cc3c1=Nc1ccccc1-3)=Nc1ccccc1-2 [Cpd 17, 6-Formylindolo [3,2-B] carbazole] | 50 °C |  |  |  | 
2 | CC1=C(/C=C/C(C)=C/C=C/C(C)=C/C(=O)Nc2ccc(O)cc2)C(C)(C)CCC1 [Cpd 43, 4-Hydroxyphenylretinamide] | 50 °C |  |  |  | 
3 | CC(C)(Oc1ccc(CCNC(=O)c2ccc(Cl)cc2)cc1)C(=O)O [Cpd 61, Bezafibrate] |  | 0 °C |  |  | 
4 | O=C(Nc1ccccc1)c1cc([N+](=O)[O-])ccc1Cl [Cpd 62, GW 9662] |  |  | 48 °C | 0 °C | 
5 | C[C@H](CCC(=O)NCC(=O)O)[C@H]1CC[C@H]2[C@@H]3[C@H](O)C[C@@H]4C[C@H](O)CC[C@]4(C)[C@H]3C[C@H](O)[C@]12C [Cpd 63, Glycochalic acid] |  |  | 48 °C | 0 °C | 
6 | C/C=C1\C(=O)C[C@H]2[C@@H]3CCC4=CC(=O)CC[C@]4(C)[C@H]3CC[C@]12C [Cpd 64, Z-Guggulsterone] |  |  | 46 °C | −2 °C | 
7 | C[C@]12CC[C@@H]3c4ccc(O)cc4CC[C@H]3[C@@H]1CC[C@@H]2O [Cpd 65, 17b-Estradiol] |  |  | 47 °C | −1 °C | 
8 | Cc1cccc(Nc2cc(Cl)nc(SCC(=O)O)n2)c1C [Cpd 66, WY-14643] |  | -0.5 °C | 47.5 °C |  | 
9 | CCCc1c(OCCCCc2nnn[nH]2)ccc(C(C)=O)c1O [Cpd 67, LY 171883] |  | -1.5 °C | 46.5 °C |  | 
10 | Cc1ccc(C)c(OCCCC(C)(C)C(=O)O)c1 [Cpd 68, Gemfibrozil] |  | -0.5 °C | 47.5 °C |  | 
11 | CC(CCC(=O)NCC(=O)O)C1CCC2C3CCC4CC(O)CCC4(C)C3CC(O)C12C (stereo not shown) [Cpd 69, Glycodeoxycholic acid] |  | -1.5 °C | 46.5 °C |  | 
12 | Clc1cnc(Oc2ccc(Oc3ncc(Cl)cc3Cl)cc2)c(Cl)c1 [Cpd 70, TCPOBOP] |  |  | 48 °C | 0 °C | 
13 | CC(=O)[C@H]1CC[C@H]2[C@@H]3CC=C4C[C@@H](O)CC[C@]4(C)[C@H]3CC[C@]12C [Cpd 71, Pregnenoione] |  |  | 48 °C | 0 °C | 
14 | CC1(COc2ccc(CC3SC(=O)NC3=O)cc2)CCCCC1 (stereo not shown) [Cpd 72, Ciglitazone] |  | -0.5 °C |  |  | 
15 | CCCCC/C=C/C=C1/C(=O)C=C[C@@H]1C/C=C\CCCC(=O)O [Cpd 73, 15-Deoxy-D12,14-prostaglandin J2] |  |  | 48 °C | 0 °C | 
16 | CC(C)(Sc1ccc(CCN(CCCCC2CCCCC2)C(=O)NC2CCCCC2)cc1)C(=O)O [Cpd 74, GW 7647] |  | -2.5 °C | 45.5 °C |  | 
17 | C[C@H](CCC(=O)NCCS(=O)(=O)O)[C@H]1CC[C@H]2[C@@H]3[C@H](O)C[C@@H]4C[C@H](O)CC[C@]4(C)[C@H]3C[C@H](O)[C@]12C [Cpd 75, Taurocholic acid] |  |  | 47.5 °C |  | -0.5 °C
18 | CCCCCCCC/C=C\CCCCCCCC(=O)NCCO [Cpd 76, N-Oleoylethanolamide] |  |  | 48.5 °C | 0.5 °C | 
19 | C[C@]12CCC(=O)C=C1CC[C@@H]1[C@@H]2CC[C@]2(C)C(=O)CC[C@@H]12 [Cpd 77, Androstenedione] |  |  | 47 °C |  | -1 °C
20 | Cc1c(C)c2c(c(C)c1O)CCC(C)(COc1ccc(CC3SC(=O)NC3=O)cc1)O2 (stereo not shown) [Cpd 79, Troglitazone] |  | 0 °C |  |  | 
21 | N[C@@H](Cc1cc(I)c(Oc2ccc(O)cc2)c(I)c1)C(=O)O [Cpd 80, 3,5-Diiodo-L-thyroine] |  |  | 48.5 °C | 0.5 °C | 
22 | C[C@H](CCC(=O)NCCS(=O)(=O)O)[C@H]1CC[C@H]2[C@@H]3CC[C@@H]4C[C@H](O)CC[C@]4(C)[C@H]3C[C@H](O)[C@]12C [Cpd 81, Taurodeoxycholic acid] |  | -0.5 °C | 47.5 °C |  | 
23 | CC(C)c1onc(-c2c(Cl)cccc2Cl)c1COc1ccc(/C=C/c2cccc(C(=O)O)c2)c(Cl)c1 [Cpd 82, GW4064] |  |  | 35 °C | −13 °C | 
24 | C=C1/C(=C\C=C2/CCC[C@]3(C)[C@@H]([C@H](C)CCCC(C)(C)O)CC[C@@H]23)C[C@@H](O)C[C@@H]1O [Cpd 83, 1a,25-Dihydroxyvitamin D3] |  |  | 46.5 °C | −1.5 °C | 

Row | Compound | Tm (Table 1.2, 100 μM compound) | ΔTm at 100 µM [1] | Tm [2] | delta Tm [3] | ΔTm at 100 µM
25 | CCCCCC=CCC=CCC=CCC=CCCCC(=O)O [Cpd 84, 5,8,11,14-Eicosatetranoic acid] |  |  | 46.5 °C | −1.5 °C | 
26 | Clc1ccc(-c2nc3sccn3c2/C=N/OCc2ccc(Cl)c(Cl)c2)cc1 [Cpd 85, CITCO] |  |  | 48 °C | 0 °C | 
27 | N[C@@H](Cc1cc(I)c(O)c(I)c1)C(=O)O [Cpd 86, 3,5-Diiodo-L-tyrosine] | 50 °C |  | 50 °C |  | 2 °C
28 | CO[C@H]1/C=C/O[C@@]2(C)Oc3c(C)c(O)c4c(O)c(c(/C=N/N5CCN(C)CC5)c(O)c4c3C2=O)NC(=O)/C(C)=C\C=C\[C@H](C)[C@H](O)[C@@H](C)[C@@H](O)[C@@H](C)[C@H](OC(C)=O)[C@@H]1C [Cpd 87, Rifampicin] | 49.5 °C | 1.5 °C | 49.5 °C |  | 
29 | CC(C)=CCC/C(C)=C/CC/C(C)=C/CC/C(C)=C/CO [Cpd 88, Geranylgeranoil] |  |  | 47.5 °C | −0.5 °C | 
30 | CC/C=C\C/C=C\C/C=C\C/C=C\C/C=C\C/C=C\CCC(=O)O [Cpd 89, Docosa-4Z,7Z,10Z,13Z,16Z,19Z-hexaenoic acid] |  | -0.5 °C | 47.5 °C |  | 
31 | COc1ccc(NS(=O)(=O)c2cccc(NC(=O)c3ccc(Cl)nc3)c2)cc1 [Cpd 116] |  |  | 47.5 °C | −0.5 °C | 
32 | CCN(CC)S(=O)(=O)c1ccc(/C=C/C(=O)Nc2ccc(Br)cc2F)cc1 [Cpd 117] |  |  | 48.5 °C | 0.5 °C | 
33 | Clc1ccc(OCCN2CCN(c3ncnc4sccc34)CC2)cc1 [Cpd 120] |  |  | 46.5 °C | −1.5 °C | 
34 | CC(=O)c1c(C)[nH]c(C(=O)OCCCCN2C(=O)c3ccccc3C2=O)c1C [Cpd 121] |  |  | 48 °C | 0 °C | 
35 | Cc1cc(-n2c(C)cc(C(=O)CSc3ncnc4ccccc34)c2C)no1 [Cpd 122] |  |  | 47.5 °C | −0.5 °C | 
36 | CCN(CC)S(=O)(=O)c1cccc(NC(=O)COC(=O)c2[nH]c(C)c(C(C)=O)c2C)c1 [Cpd 123] |  |  | 47.5 °C | −0.5 °C | 
37 | CC(=O)c1c(C)[nH]c(C(=O)COc2cc(C)ccc2C(C)C)c1C [Cpd 125] |  |  | 47.5 °C | −0.5 °C | 
38 | COc1ccc(CNc2ncnc3ccccc23)cc1 [Cpd 126] |  |  | 47.5 °C | −0.5 °C | 
39 | Cc1nn(C)c(C)c1NC(=O)COc1ccc(Cl)cc1Br [Cpd 127] |  |  | 47.5 °C | −0.5 °C | 
40 | N#CCSc1nnc(-c2sc3ccccc3c2Cl)o1 [Cpd 128] |  |  | 48 °C | 0 °C | 
41 | COc1ccc(CN(C)c2ccc(S(=O)(=O)N3CCN(C)CC3)cc2[N+](=O)[O-])cc1OC [Cpd 129] |  |  | 47.5 °C | −0.5 °C | 
42 | CCCCCCn1c(NCC)nc2c1c(=O)n(C)c(=O)n2C [Cpd 130] |  |  | 47.5 °C | −0.5 °C | 
43 | CC(=O)c1ccc(N2CCN(C(=S)Nc3ccc(Oc4ccccc4)cc3)CC2)cc1 [Cpd 131] |  |  | 47.5 °C | −0.5 °C | 
44 | O=C(Nc1ccncc1)c1ccc(Cl)c(S(=O)(=O)N2CCc3ccccc32)c1 [Cpd 132] |  |  | 47.5 °C | −0.5 °C | 
45 | CCN(CC)S(=O)(=O)c1cccc(NC(=O)CNc2cccc(S(=O)(=O)N3CCCC3)c2)c1 [Cpd 133] | 49 °C | 1 °C | 49 °C |  | 
46 | c1ccc(CNc2ncnc3ccccc23)cc1 [Cpd 134] |  |  | 47.5 °C | −0.5 °C | 
47 | Cc1ccc(F)cc1NC(=O)Cc1nn(C)c(=O)c2ccccc12 [Cpd 135] |  |  | 47.5 °C | −0.5 °C | 
48 | S=C(NCCc1ccccc1)Nc1cccc2cnccc12 [Cpd 136] |  |  | 47.5 °C | −0.5 °C | 
